Test results from patent US20230292743A1, “Method for increasing the lifespan and motility of animal sperm using an inhibitor of Slo3 potassium channel” (IMV TECHNOLOGIES, priority 2017, published 2023).

Experiments:
mouse sperm = test: Ability of mouse sperm to fertilize oocytes after incubation in capacitation medium (in vitro fertilization, 2-cell embryos); assay type: cell-based; conditions: vs control; for percentage of 2-cell embryos vs mature MII oocytes at 24 h post fertilization: 12 hours incubation prior fertilization; for percentage of 2-cell embryos vs mature oocytes at 48 h post fertilization: 5 μM clofilium in M16-BSA medium
Experimental: Mouse sperm was obtained by manual trituration of caudae epididymides from male and were allowed to swim in M2 medium (from Sigma) for 10 minutes. The M2 medium composition in g/L is as follows: CaCl2 0.25; MgSO4 (anhydrous) 0.1649; KCl 0.35635; K2HPO4 0.162; NaHCO3 0.35; NaCl 5.53193; Albumin, Bovine Fraction V 4.0; D-Glucose 1.0; HEPES (for 4-(2-HydroxyEthyl)-1-Piperazine EthaneSulfonic acid)×Na 5.42726; Pyruvic Acid×Na 0.0363; DL-Lactic Acid×Na 2.95). Sperm were then capacitated in M16 medium (from Sigma) with 2% fatty acid-free BSA (for Bovine Serum Albumin) (named “M16-BSA medium”) at 37° C. in a 5% v/v CO2 incubator for different times as specified. M16 medium is a commercial and commonly used medium for in vitro fertilization and culture of preimplantation stage embryos. Oocytes were collected from mature OF1 females, synchronized with 5 units of pregnant mare serum gonadotrophin (PMSG) and 5 units of human chorionic gonadotrophin (HCG). Cumulus were harvested directly from the ampulla and sperm were injected into the M16 droplets containing the cumulus. 1. The first test related to the ability of mouse sperm to fertilize oocytes when incubated prior fertilization in a capacitation medium containing clofilium with regard to a control medium, which is the same capacitation medium but without clofilium. The capacitation medium was M16-BSA medium. The control medium was the M16-BSA medium containing the sperm. It was compared to the same medium further including clofilium at a concentration of 5 μM (in the M16-BSA medium containing the sperm). Sperm was incubated in M16-BSA medium with or without clofilium and then added to M16 droplets containing the cumulus comprising the oocytes. Two-cell embryos were counted at 48 h post insemination (n=3). The number of oocytes reaching the two-cell stage were counted at 48 hours after fertilization. Two different concentrations of clofilium were tested: 0.2 μM of clofilium and 5 μM of clofilium (in the M16-BSA medium containing the sperm). The sperm incubation time prior fertilization was 12 hours. The test related to the ability of mouse sperm to fertilize oocytes, sperm being incubated prior fertilization in a medium containing quinidine with regard to a control medium, without quinidine. The control medium was the M16-BSA medium containing the sperm (“control”). It was compared to the same medium further including quinidine, at various concentrations 5 μM quinidine (“5 μM quinidine”), 10 μM quinidine (“10 μM quinidine”), 25 μM quinidine (“25 μM quinidine”) and 100 μM quinidine (“100 μM quinidine”).

bovine sperm = test: CASA motility of bovine sperm subpopulation with VCL >150 μm/s, sperm frozen with clofilium; assay type: cell-based; conditions: bovine sperm frozen with 0.2 μM clofilium, 24 h in capacitation medium with 0.2 μM clofilium, vs control
Experimental: However, only sperm presenting a sufficient velocity are able to cross the protective layers surrounding the egg and thus are competent for fertilizing eggs. To take this into account, sperm presenting a VCL >150 μm/s were selected and their velocity measured at different time (0 h and 24 h) in control condition or in the presence of clofilium. Sperm were frozen without clofilium (control) and with clofilium prior to test their motility. In the second case, clofilium was present during the sperm incubation period and during the capacitation period. Bovine ejaculate was split into two fractions, and diluted 1:1 in either Optixcell (Fraction 1) or Optixcell containing clofilium 0.2 μM (Fraction 2). After 10 minutes of 34° C. incubation, semen was then diluted to a final concentration of 57 million of spermatozoa/ml in Optixcell (Fraction 1) or Optixcell containing clofilium 0.2 μM (Fraction 2). Diluted semen was frozen as described above and stored in liquid nitrogen until in vitro fertilization. Thus, two types of straws were used: control straws and straws containing clofilium (0.2 μM ). Straws were thawed in a water-bath at 37° C. for 45 s. Each straw was wiped with 70° ethanol before opening. […] Spermatozoa presenting a VCL >150 μm/s were selected and their motility was measured using CASA, performed as above in control condition or in the presence of clofilium. […]

## CCCCCCC[N+](CC)(CC)CCCCc1ccc(Cl)cc1 [clofilium]
Mouse sperm; 0.2 μM clofilium
  percentage of 2-cell embryos vs mature MII oocytes at 24 h post fertilization: improves the mouse in vitro fertilization outcome
Mouse sperm; 3 h incubation period prior fertilization
  percentage of 2-cell embryos vs mature oocytes at 48 h post fertilization: not significantly different than that of control
Mouse sperm; long incubation periods (>3 hours) prior fertilization
  percentage of 2-cell embryos vs mature oocytes at 48 h post fertilization: higher number of 2-cell stages than what was observed with the control
Mouse sperm; short incubation periods (<3 hours) prior fertilization
  percentage of 2-cell embryos vs mature oocytes at 48 h post fertilization: positive effect
Mouse sperm; 5 μM clofilium
  percentage of 2-cell embryos vs mature MII oocytes at 24 h post fertilization: potent
Bovine sperm
  motility (in terms of VCL) of sperm subpopulation with VCL >150 μm/s: higher mean velocity
